Here are results for 1 compound from patent US8916206B2, “Nanoparticles containing water-soluble non-peptide low-molecular weight drug” (LTT Bio-Pharma Co., Ltd., priority 2005, dated 2014).

For assay [1], the system named is adjuvant arthritis rats. The assay is described as follows: Suppression of adjuvant arthritis, Example 5 (left hind leg volume, water displacement). Type of assay: in vivo, Lewis rats. The settings on record: average of 4 rats. On the procedure:
(§1) Fifty microliters of an incomplete Freund's adjuvant solution (DIFCO) containing 6 mg/mL of M. Butyricum Dessicated (DIFCO) was subcutaneously injected into the left hind paw of 7-week-old Lewis rats, weighing 130 to 160 g, under anesthesia with ether. The animals were divided into groups so that there is no significant difference in the volume of the left hind leg between the groups. 14 days after administration of M. Butyricum, one group was intravenously administered a single dose of the nanoparticles of the present invention encapsulating betamethasone phosphate (equivalent to 50 μg betamethasone). As controls, other groups were intravenously administered the same amount of an aqueous betamethasone phosphate solution or the PLA nanoparticles encapsulating betamethasone phosphate (nanoparticles described in Example 2 of International Patent Publication No. WO 2004/84871), each administered in a single dose.
(§2) The ability of the nanoparticles to suppress arthritic inflammation was analyzed by the water displacement technique by measuring the volume of the left hind legs before and after the administration of the nanoparticles.
(§3) Inflammation rate shown in Table 6 was determined with respect to the leg volume of the control group (=100) and calculated by the following equation: Inflammation rate(%)=(measured leg volume−leg volume without adjuvant)/(initial leg volume−leg volume without adjuvant)×100
Each inflammation rate is the average of 4 rats.

The subject of assay [2] is adjuvant arthritis rats. The assay is described as follows: Suppression of adjuvant arthritis, Example 9 (left hind leg volume, water displacement). The settings on record: average of 7 rats. The format is in vivo, Lewis rats. On the procedure: as §1, §2, §3
As in Example 5, the ability of nanoparticles to suppress adjuvant arthritis was evaluated. Each inflammation rate is the average of 7 rats. Nanoparticles of the present invention containing betamethasone phosphate equivalent to 40 μg betamethasone were intravenously administered in a single dose.
As a control, another group of rats was intravenously administered the same amount of an aqueous solution of betamethasone phosphate in a single dose.

In the case of `C[C@H]1C[C@H]2[C@@H]3CCC4=CC(=O)C=C[C@]4(C)[C@@]3(F)[C@@H](O)C[C@]2(C)[C@@]1(O)C(=O)COP(=O)(O)O` [betamethasone phosphate], the Inflammation rate turned out to be 83% in the assay on adjuvant arthritis rats [1] (1 day after single i.v. dose equivalent to 50 μg betamethasone); 80% in the assay with adjuvant arthritis rats [1] (2 days after single i.v. dose equivalent to 50 μg betamethasone); 82% in the assay with adjuvant arthritis rats [1] (3 days after single i.v. dose equivalent to 50 μg betamethasone); 83% in the assay on adjuvant arthritis rats [1] (4 days after single i.v. dose equivalent to 50 μg betamethasone); 84% in the assay with adjuvant arthritis rats [1] (6 days after single i.v. dose equivalent to 50 μg betamethasone); 81% with adjuvant arthritis rats [1] (8 days after single i.v. dose equivalent to 50 μg betamethasone). Moreover, the Inflammation rate with adjuvant arthritis rats [2] (1 day after single i.v. dose equivalent to 40 μg betamethasone) came out at 81%; in the assay on adjuvant arthritis rats [2] (2 days after single i.v. dose equivalent to 40 μg betamethasone), 83%; with adjuvant arthritis rats [2] (3 days after single i.v. dose equivalent to 40 μg betamethasone) it was 83%; in the assay on adjuvant arthritis rats [2] (4 days after single i.v. dose equivalent to 40 μg betamethasone) it was 78%; with adjuvant arthritis rats [2] (5 days after single i.v. dose equivalent to 40 μg betamethasone), 78%; with adjuvant arthritis rats [2] (7 days after single i.v. dose equivalent to 40 μg betamethasone) it was 79%. The Inflammation rate in the assay on adjuvant arthritis rats [2] (9 days after single i.v. dose equivalent to 40 μg betamethasone) is reported as 79%.
